# According to EP0973746B1, “SUBSTITUTED 3-CYANO QUINOLINES” (Wyeth Holdings Corporation, priority 1997, dated 1998):
# Where “and” joins values, the source holds several entries; their conditions need not be identical. Equal entries are not always repeated. Where two headings read alike, the source gives them in different places.
# Key:
# SW620 = test: Inhibition of cancer cell growth as measured by cell number, SW620; assay type: cell-based, human; conditions: Homo sapiens, SW-620, 48 h;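 further: SW620 was included as a cell line with little or no EGFR or HER2/neu expression, in contrast to receptor-overexpressing lines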
# Description: (§1) The cell lines were chosen since they overexpressed epidermal growth factor receptor (EGFR) (i.e. A431) or HER2/neu (SKBR3), or had little to no expression of the these receptors (SW620, LOX, MCF7).
# MCF7 = test: Inhibition of cancer cell growth as measured by cell number, MCF7; assay type: cell-based, human; conditions: Table 8; for IC50: Homo sapiens, MCF7, 48 h;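 on all read-outs here: MCF7 was included as a line with little or no EGFR or HER2/neu expression, in contrast to the receptor-overexpressing lines of the panel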
# Description: as §1
# SKBR3 = test: Inhibition of cancer cell growth as measured by cell number, SKBR3; assay type: cell-based, human; conditions: Table 8; for IC50: Homo sapiens;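 on all read-outs here: SK-BR-3 cells were selected as a line overexpressing HER2/neu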
# Description: as §1
# LOX = test: Inhibition of cancer cell growth as measured by cell number, LOX; assay type: cell-based, human; conditions: Table 8; for IC50: Homo sapiens, LOX, 48 h;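 on all read-outs here: LOX cells served as a line with low or absent EGFR and HER2/neu expression, in contrast to receptor-overexpressing lines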
# Description: as §1
# A431 = test: Inhibition of cancer cell growth as measured by cell number, A431; assay type: cell-based, human; conditions: Table 8; for IC50: Homo sapiens, A-431, 48 h;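 on all read-outs here: human A431 line, picked because it overexpresses epidermal growth factor receptor (EGFR)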
# Description: as §1
# [1] = molecular target: recombinant human MEK 1 (MAPKK) and recombinant human ERK2 (MAPK); test: Mitogen Activated Protein Kinase (MAPK) assay, two component coupled MEK 1 / ERK2; assay type: biochemical; conditions: separate entries for the same compound = evaluated more than one time;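 further: MEK 1-activated ERK2 phosphorylates MBP or Myc peptide with 33P-ATP, filter capture and scintillation counting, inhibitor preincubated with ERK2 30 min at 0 °C, inhibition relative to uninhibited control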
# [2] = molecular target: T1, His-tagged cytoplasmic domain of EGFR (Homo sapiens, UniProt P00533); test: Inhibition of Epidermal Growth Factor Receptor Kinase (EGF-R) using recombinant enzyme; assay type: biochemical; conditions: recombinant enzyme; RR-SRC peptide; average of the number of tests; read-out: IC50;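 further: radiometric kinase assay measuring radiolabeled phosphate transfer from ATP onto the peptide tyrosine by scintillation counting, control is reaction without compound, background subtracted, IC50 from dose-response curve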
# T1 construct: containing the EGFR cDNA encoding amino acids 645 - 1186 preceded by Met-Ala-(His)6; made in house; host or cells: Sf9 cells, recombinant baculovirus vHcEGFR52
# T1 sequence (P00533 669-1210): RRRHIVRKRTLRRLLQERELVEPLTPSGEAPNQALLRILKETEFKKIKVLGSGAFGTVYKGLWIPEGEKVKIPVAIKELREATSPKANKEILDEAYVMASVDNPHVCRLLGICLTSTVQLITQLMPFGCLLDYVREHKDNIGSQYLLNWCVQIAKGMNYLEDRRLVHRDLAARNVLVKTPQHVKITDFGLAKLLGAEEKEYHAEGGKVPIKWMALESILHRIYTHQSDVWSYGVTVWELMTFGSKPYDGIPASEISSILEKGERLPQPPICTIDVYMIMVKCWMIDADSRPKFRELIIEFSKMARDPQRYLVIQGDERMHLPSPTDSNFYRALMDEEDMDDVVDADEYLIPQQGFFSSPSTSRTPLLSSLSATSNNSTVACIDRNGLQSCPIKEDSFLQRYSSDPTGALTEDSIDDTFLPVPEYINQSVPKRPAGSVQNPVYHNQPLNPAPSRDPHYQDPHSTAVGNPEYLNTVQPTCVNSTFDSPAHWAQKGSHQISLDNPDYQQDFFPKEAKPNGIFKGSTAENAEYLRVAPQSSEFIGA
# [3] = read-out: IC50 SW620, cell number, Sulforhodamine B, 48 hours exposure, Table 8
# [4] = read-out: IC50 MCF7, cell number, Sulforhodamine B, 48 hours exposure
# [5] = SK-BR-3, 48 h, read-out: IC50 SKBR3, cell number, Sulforhodamine B, 48 hours exposure
# [6] = read-out: IC50 LOX, cell number, Sulforhodamine B, 48 hours exposure
# [7] = read-out: IC50 A431, cell number, Sulforhodamine B, 48 hours exposure
# [8] = cell number, Sulforhodamine B, 48 hours exposure
# [9] = cell number, Sulforhodamine B, 48 hours exposure, Table 8, read-out: IC50 SW620
# [10] = cell number, Sulforhodamine B, 48 hours exposure, read-out: IC50 MCF7
# [11] = cell number, Sulforhodamine B, 48 hours exposure, read-out: IC50 LOX
# [12] = cell number, Sulforhodamine B, 48 hours exposure, read-out: IC50 A431
# [13] = SK-BR-3, cell number, Sulforhodamine B, 48 hours exposure, read-out: IC50 SKBR3
Compound,IC50 (SW620; [3]) [µg/mL],IC50 (MCF7; [4]) [µg/mL],IC50 (SKBR3; [5]) [µg/mL],IC50 (LOX; [6]) [µg/mL],IC50 (A431; [7]) [µg/mL],IC50 [1],further results
"COc1cc2ncc(C#N)c(Nc3cccc(F)c3)c2cc1OC [Example 35, 4-[(3-Fluorophenyl)amino]-6,7-dimethoxy-3-quinolinecarbonitrile]",6.4,40.9,0.93,,,,"IC50 (SW620; read-out: IC50 SW620, cell number, Sulforhodamine B, 48 hours exposure, Table 4): 9.57 µg/mL"
"COCC=CC(=O)Nc1ccc2ncc(C#N)c(Nc3cccc(Br)c3)c2c1 [Example 65, 4-Methoxy-but-2-enoic acid [4-(3-bromo-phenylamino)-3-cyano-quinolin-6-yl]-amide]",> 100,84,60,84,48,40 µM,
"CN(C)Cc1cc([N+](=O)[O-])cc2c(Nc3cccc(Br)c3)c(C#N)cnc12 [Example 108, 4-[(3-Bromophenyl)amino]-8-dimethylaminomethyl-6-nitro-3-quinolinecarbonitrile]",14.6,7.97,6.34,6.85,6.6,> 100 µM,
"CN(C)Cc1cc(N)cc2c(Nc3cccc(Br)c3)c(C#N)cnc12 [Example 109, 6-Amino-4-[(3-bromophenyl)amino]-8-dimethylaminomethyl-3-quinolinecarbonitrile]",40.8,37.9,30.7,35.1,38.9,,
"CC#CC(=O)Nc1cc(CN(C)C)c2ncc(C#N)c(Nc3cccc(Br)c3)c2c1 [Example 110, N-{4-[(3-Bromophenyl)amino]-3-cyano-8-dimethylaminomethyl-6-quinolinyl} -2-butynamide]",0.7,,1.3,0.8,0.9,40 µM,
"C=CC(=O)Nc1ccc2ncc(C#N)c(Nc3cccc(OC)c3)c2c1 [Example 138, N-{3-Cyano-4-[(3-methoxyphenyl)amino]-6-quinolinyl}-2-propenamide]",3.52,3.51,< 0.01,1.12,0.44,,IC50 [2]: 0.0035 µM
"C=CC(=O)Nc1ccc2ncc(C#N)c(Nc3ccc(Br)cc3)c2c1 [Example 151, N-{4-[(4-Bromophenyl)amino]-3-cyano-6-quinolinyl} -2-propenamide]",< 0.01,0.61,0.07,0.08,0.09,,IC50 [2]: 0.5 µM
"N#Cc1cnc2ccc(N)cc2c1Nc1ccc(F)c(F)c1 [Example 155, 6-Amino-4-[(3.4-difluorophenyl)amino]-3-quinolinecarbonitrile]",7.55,7.49,3.28,6.08,4.3,,
"N#Cc1cnc2ccc(N)cc2c1Nc1ccc(Sc2ccccc2)c(Cl)c1 [Example 158, 6-Amino-4-[(3-chloro-4-thiophenoxyphenyl)amino]-3-quinolinecarbonitrile]",4.08,5.44,0.8,2.44,2.97,,
"N#Cc1cccc(Nc2c(C#N)cnc3ccc(N)cc23)c1 [Example 162, 6-Amino-4-[(3-cyanophenyl)amino]-3-quinolinecarbonitrile]",33.5,16.4,7.15,8.13,6.87,35 µM,
"N#Cc1cccc(Nc2c(C#N)cnc3ccc([N+](=O)[O-])cc23)c1 [Example 163, 4-[(3-Cyanophenyl)amino]-6-nitro-3-quinolinecarbonitrile]",47.3,17.4,7.28,64.2,7.02,> 100 µM,
"C#Cc1cccc(Nc2c(C#N)cnc3ccc(NC(=O)C#CC)cc23)c1 [Example 164, N-{3-Cyano-4-[(3-ethynylphenyl)amino]-6-quinolinyl}-2-butynamide]",,57,0.7,0.9,0.6,> 100 µM,IC50 [2]: 0.09 µM; IC50 A431 (A431; [8]): 0.322 µg/mL; IC50 SKBR3 (SKBR3; [8]): 0.684 µg/mL
"C#Cc1cccc(Nc2c(C#N)cnc3ccc(N)cc23)c1 [Example 167, 6-Amino-4-[(3-ethynylphenyl)amino]-3-quinolinecarbonitrile]",8.1,8.5,3.7,5.3,2.6,> 100 µM,
"C#Cc1cccc(Nc2c(C#N)cnc3ccc([N+](=O)[O-])cc23)c1 [Example 168, 4-[(3-Ethynylphenyl)amino]-6-nitro-3-quinolinecarbonitrile]",9.1,5.94,1.38,1.76,1.57,80 µM,
"CCN1CCN(CC#CC(=O)Nc2ccc3ncc(C#N)c(Nc4cccc(Br)c4)c3c2)CC1 [Example 188, N-[4-[(3-Bromophenyl)amino]-3-cyano-6-quinolinyl]-4-(N-ethylpiperazino)-2-butynamide]",,1.43,,,0.54,,IC50 [2]: 0.001 µM; IC50 MCF7 (MCF7; [8]): 0.8 µg/mL; IC50 A431 (A431; [8]): 0.4 µg/mL and 0.579 µg/mL
"CCOc1cc2ncc(C#N)c(Nc3ccc(Sc4ccccc4)c(Cl)c3)c2cc1OCC [Example 254, 4-[3-Chloro-4-(phenylthio)phenylamino]-6,7-diethoxy-3-quinolinecarbonitrile]",0.03,0.07,0.01,0.07,0.07,,
"CCOc1cc2ncc(C#N)c(N(C)c3ccccc3)c2cc1OCC [Example 258, 4-(N-Methylphenylamino)-6,7-diethoxy-3-quinolinecarbonitrile]",,7.87,,6.12,4.67,,IC50 MCF7 (MCF7; [8]): 9.69 µg/mL; IC50 LOX (LOX; [8]): 10.72 µg/mL; IC50 A431 (A431; [8]): 5.42 µg/mL
"CCOc1cc2ncc(C#N)c(Nc3ccc(F)cc3)c2cc1OCC [Example 260, 4-(4-fluorophenylamino)-6,7-diethoxy-3-quinolinecarbonitrile]",0.32,9.98,0.08,0.26,0.06,55 µM,
"CCOc1cc2ncc(C#N)c(Nc3cccc(F)c3)c2cc1OCC [Example 263, 4-(3-Fluorophenylamino)-6,7-diethoxy-3-quinolinecarbonitrile]",,,,,,80 µM,IC50 (SW620; [9]): 5.79 µg/mL; IC50 (MCF7; [10]): 8.44 µg/mL; IC50 (LOX; [11]): 5.66 µg/mL; IC50 (A431; [12]): 6.9 µg/mL; IC50 (SKBR3; [13]): 7.5 µg/mL
"COCCOc1cc2ncc(C#N)c(Nc3cccc(Br)c3)c2cc1OCCOC [Example 311, 4-[(3-Bromophenyl)amino]-6,7-bis(2-methoxyethoxy)-3-quinolinecarbonitrile]",1,,0.7,2.8,,2 µM and 2.5 µM,
"COc1cc2c(Nc3ccc(O)cc3C)c(C#N)cnc2cc1OCCCN1CCOCC1 [Example 312, 4-(4-Hydroxy-2-methyl-phenylamino)-6-methoxy-7-(3-morpholin-4-yl-propoxy)-quinoline-3-carbonitrile]",,,,,,> 100 µM,IC50 [2]: 0.05 µM; IC50 (SW620; [9]): 3.53 µg/mL; IC50 (A431; [12]): 0.491 µg/mL; IC50 (SKBR3; [13]): 2.25 µg/mL
"CC(C)(C)[Si](C)(C)OCC#CC(=O)Nc1ccc2ncc(C#N)c(Nc3cccc(Br)c3)c2c1 [Example 331, N-[4-[(3-Bromophenyl)amino]-3-cyano-6-quinolinyl]-4-t-butyldimethylsiloxy-2-butynamide]",,,,,,,IC50 (SW620; [9]): 0.04 µg/mL; IC50 (MCF7; [10]): 0.44 µg/mL; IC50 (LOX; [11]): 0.04 µg/mL; IC50 (A431; [12]): 0.03 µg/mL; IC50 (SKBR3; [13]): 0.16 µg/mL
"C=CC(=O)Nc1ccc2ncc(C#N)c(Nc3cccc(N(C)C)c3)c2c1 [Example 391, N-[3-Cyano-4-(3-dimethylaminophenylamino)quinolin-6-yl]acrylamide]",,,,,,> 100 µM,IC50 (SW620; [9]): 5.23 µg/mL; IC50 (MCF7; [10]): 6.53 µg/mL; IC50 (LOX; [11]): 0.1 µg/mL; IC50 (A431; [12]): 0.34 µg/mL; IC50 (SKBR3; [13]): 0.4 µg/mL
"C=CC(=O)Nc1ccc2ncc(C#N)c(Nc3ccc(N(C)C)cc3)c2c1 [Example 392, N-[3-Cyano-4-(4-dimethylaminophenylamino)quinolin-6-yl]acrylamide]",,,,,,40 µM,IC50 (SW620; [9]): 73.3 µg/mL; IC50 (MCF7; [10]): 3.66 µg/mL; IC50 (LOX; [11]): 1.99 µg/mL; IC50 (A431; [12]): 0.46 µg/mL; IC50 (SKBR3; [13]): 2.61 µg/mL
"CC#CC(=O)Nc1ccc2ncc(C#N)c(Nc3cccc(N(C)C)c3)c2c1 [Example 393, But-2-ynoic Acid [3-Cyano-4-(3-dimethylaminophenylamino)quinolin-6-yl]amide]",,,,,,40 µM,IC50 (SW620; [9]): 2.25 µg/mL; IC50 (MCF7; [10]): 4 µg/mL; IC50 (LOX; [11]): 0.85 µg/mL; IC50 (A431; [12]): 0.45 µg/mL; IC50 (SKBR3; [13]): 0.84 µg/mL
